# Assay results published in ChEMBL document CHEMBL2440076, “New triarylpyrazoles as broad-spectrum anticancer agents: design, synthesis, and biological evaluation” (Eur J Med Chem, 2013).
# How the values were obtained:
# Assay type in all cases: functional
# OVCAR-8 [1] = test: Growth inhibition of human OVCAR8 cells assessed as cell growth at 5X10'-8 M after 48 hrs by sulforhodamine B assay; conditions: OVCAR-8, 48 h, read-out: Activity
# U-251 [2] = test: Growth inhibition of human U251 cells assessed as cell growth at 5X10'-8 M after 48 hrs by sulforhodamine B assay; conditions: U-251, 48 h, read-out: Activity
# NCI-H23 = test: Growth inhibition of human NCI-H23 cells assessed as cell growth at 5X10'-8 M after 48 hrs by sulforhodamine B assay; conditions: NCI-H23, 48 h, read-out: Activity
# Malme-3M [3] = test: Growth inhibition of human MALME-3M cells assessed as cell growth at 5X10'-5 M after 48 hrs by sulforhodamine B assay; conditions: read-out: Activity
# MCF7 = test: Growth inhibition of human MCF7 cells assessed as cell growth at 5X10'-9 M after 48 hrs by sulforhodamine B assay; conditions: MCF7, 48 h, read-out: Activity
# HL-60(TB) [4] = test: Growth inhibition of human HL-60(TB) cells assessed as cell growth at 5X10'-6 M after 48 hrs by sulforhodamine B assay; conditions: HL-60, 48 h, read-out: Activity
# CAKI-1 = test: Growth inhibition of human CAKI-1 cells assessed as cell growth at 5X10'-6 M after 48 hrs by sulforhodamine B assay; conditions: CAKI-1, 48 h, read-out: Activity
# SK-MEL-5 = test: Growth inhibition of human SK-MEL-5 cells assessed as cell growth at 5X10'-8 M after 48 hrs by sulforhodamine B assay; conditions: SK-MEL-5, 48 h, read-out: Activity
# DU-145 = test: Growth inhibition of human DU145 cells assessed as cell growth at 5X10'-9 M after 48 hrs by sulforhodamine B assay; conditions: DU-145, 48 h, read-out: Activity
# KM12 [5] = test: Growth inhibition of human KM12 cells assessed as cell growth at 5X10'-7 M after 48 hrs by sulforhodamine B assay; conditions: KM12, 48 h, read-out: Activity
# TK-10 = test: Growth inhibition of human TK10 cells assessed as cell growth at 5X10'-9 M after 48 hrs by sulforhodamine B assay; conditions: TK-10, 48 h, read-out: Activity
# OVCAR-8 [6] = test: Growth inhibition of human OVCAR8 cells assessed as cell growth at 5X10'-9 M after 48 hrs by sulforhodamine B assay; conditions: OVCAR-8, 48 h, read-out: Activity
# SF-295 [7] = test: Growth inhibition of human SF295 cells assessed as cell growth at 5X10'-9 M after 48 hrs by sulforhodamine B assay; conditions: SF-295, 48 h, read-out: Activity
# SK-MEL-28 = test: Growth inhibition of human SK-MEL-28 cells assessed as cell growth at 5X10'-5 M after 48 hrs by sulforhodamine B assay; conditions: SK-MEL-28, 48 h, read-out: Activity
# SF-539 = test: Growth inhibition of human SF539 cells assessed as cell growth at 5X10'-6 M after 48 hrs by sulforhodamine B assay; conditions: SF-539, 48 h, read-out: Activity
# MDA-MB-468 = test: Growth inhibition of human MDA-MB-468 cells assessed as cell growth at 5X10'-5 M after 48 hrs by sulforhodamine B assay; conditions: MDA-MB-468, 48 h, read-out: Activity
# OVCAR-5 [8] = test: Growth inhibition of human OVCAR5 cells assessed as cell growth at 5X10'-9 M after 48 hrs by sulforhodamine B assay; conditions: OVCAR-5, 48 h, read-out: Activity
# [9] = Growth inhibition of human Hs 578T cells assessed as cell growth at 5X10'-6 M after 48 hrs by sulforhodamine B assay; conditions: read-out: Activity
# RPMI-8226 = test: Growth inhibition of human RPMI8226 cells assessed as cell growth at 5X10'-5 M after 48 hrs by sulforhodamine B assay; conditions: RPMI-8226, 48 h, read-out: Activity
# HOP-62 [10] = test: Growth inhibition of human HOP62 cells assessed as cell growth at 5X10'-5 M after 48 hrs by sulforhodamine B assay; conditions: HOP-62, 48 h, read-out: Activity
# OVCAR-3 = test: Growth inhibition of human OVCAR3 cells assessed as cell growth at 5X10'-8 M after 48 hrs by sulforhodamine B assay; conditions: OVCAR-3, 48 h, read-out: Activity
# OVCAR-5 [11] = test: Growth inhibition of human OVCAR5 cells assessed as cell growth at 5X10'-5 M after 48 hrs by sulforhodamine B assay; conditions: OVCAR-5, 48 h, read-out: Activity
# 786-0 = test: Growth inhibition of human 786-0 cells assessed as cell growth at 5X10'-5 M after 48 hrs by sulforhodamine B assay; conditions: 786-0, 48 h, read-out: Activity
# SR = test: Growth inhibition of human SR cells assessed as cell growth at 5X10'-8 M after 48 hrs by sulforhodamine B assay; conditions: read-out: Activity
# Malme-3M [12] = test: Growth inhibition of human MALME-3M cells assessed as cell growth at 5X10'-6 M after 48 hrs by sulforhodamine B assay; conditions: read-out: Activity
# HCT-15 [13] = test: Growth inhibition of human HCT15 cells assessed as cell growth at 5X10'-5 M after 48 hrs by sulforhodamine B assay; conditions: HCT-15, 48 h, read-out: Activity
# HL-60(TB) [14] = test: Growth inhibition of human HL-60(TB) cells assessed as cell growth at 5X10'-5 M after 48 hrs by sulforhodamine B assay; conditions: HL-60, 48 h, read-out: Activity
# HCT-15 [15] = test: Growth inhibition of human HCT15 cells assessed as cell growth at 5X10'-7 M after 48 hrs by sulforhodamine B assay; conditions: HCT-15, 48 h, read-out: Activity
# HOP-62 [16] = test: Growth inhibition of human HOP62 cells assessed as cell growth at 5X10'-7 M after 48 hrs by sulforhodamine B assay; conditions: HOP-62, 48 h, read-out: Activity
# A498 = test: Growth inhibition of human A498 cells assessed as cell growth at 5X10'-5 M after 48 hrs by sulforhodamine B assay; conditions: A498, 48 h, read-out: Activity
# HOP-92 = test: Growth inhibition of human HOP92 cells assessed as cell growth at 5X10'-6 M after 48 hrs by sulforhodamine B assay; conditions: HOP-92, 48 h, read-out: Activity
# KM12 [17] = test: Growth inhibition of human KM12 cells assessed as cell growth at 5X10'-6 M after 48 hrs by sulforhodamine B assay; conditions: KM12, 48 h, read-out: Activity
# SF-295 [18] = test: Growth inhibition of human SF295 cells assessed as cell growth at 5X10'-8 M after 48 hrs by sulforhodamine B assay; conditions: SF-295, 48 h, read-out: Activity
# NCI-H460 = test: Growth inhibition of human NCI-H460 cells assessed as cell growth at 5X10'-6 M after 48 hrs by sulforhodamine B assay; conditions: NCI-H460, 48 h, read-out: Activity
# U-251 [19] = test: Growth inhibition of human U251 cells assessed as cell growth at 5X10'-9 M after 48 hrs by sulforhodamine B assay; conditions: U-251, 48 h, read-out: Activity
# SNB-19 = test: Growth inhibition of human SNB19 cells assessed as cell growth at 5X10'-7 M after 48 hrs by sulforhodamine B assay; conditions: SNB-19, 48 h, read-out: Activity
# NCI-H322M = test: Growth inhibition of human NCI-H322M cells assessed as cell growth at 5X10'-5 M after 48 hrs by sulforhodamine B assay; conditions: read-out: Activity
compound,measurement,setting,value
COc1cc(-c2nn(-c3cccc(NC(=O)Nc4cccc(C(F)(F)F)c4)c3)cc2-c2ccncc2)ccc1Cl,growth at 0.05 µM,OVCAR-8 [1],101%
same,growth at 0.05 µM,U-251 [2],98%
same,growth at 0.05 µM,NCI-H23,95%
same,growth at 50 µM,Malme-3M [3],-51%
same,growth at 0.005 µM,MCF7,94%
same,growth at 5 µM,HL-60(TB) [4],4%
same,growth at 5 µM,CAKI-1,-14%
same,growth at 0.05 µM,SK-MEL-5,95%
same,growth at 0.005 µM,DU-145,105%
same,growth at 0.5 µM,KM12 [5],55%
same,growth at 0.005 µM,TK-10,94%
same,growth at 0.005 µM,OVCAR-8 [6],99%
same,growth at 0.005 µM,SF-295 [7],96%
same,growth at 50 µM,SK-MEL-28,-69%
same,growth at 5 µM,SF-539,-36%
same,growth at 50 µM,MDA-MB-468,-44%
same,growth at 0.005 µM,OVCAR-5 [8],84%
same,growth at 5 µM,[9],4%
same,growth at 50 µM,RPMI-8226,-8%
same,growth at 50 µM,HOP-62 [10],-32%
same,growth at 0.05 µM,OVCAR-3,102%
same,growth at 50 µM,OVCAR-5 [11],-43%
same,growth at 50 µM,786-0,-22%
same,growth at 0.05 µM,SR,93%
same,growth at 5 µM,Malme-3M [12],-44%
same,growth at 50 µM,HCT-15 [13],-29%
same,growth at 50 µM,HL-60(TB) [14],5%
same,growth at 0.5 µM,HCT-15 [15],66%
same,growth at 0.5 µM,HOP-62 [16],94%
same,growth at 50 µM,A498,-20%
same,growth at 5 µM,HOP-92,-45%
same,growth at 5 µM,KM12 [17],-37%
same,growth at 0.05 µM,SF-295 [18],91%
same,growth at 5 µM,NCI-H460,-11%
same,growth at 0.005 µM,U-251 [19],97%
same,growth at 0.5 µM,SNB-19,74%
same,growth at 50 µM,NCI-H322M,-14%
